In patent US20230174633A1, “METHODS AND COMPOSITIONS FOR MODULATING LIPID STORAGE IN ADIPOSE TISSUE” (MEMORIAL SLOAN KETTERING CANCER CENTER, priority 2020, published 2023):
Numbering of substitutions follows the chain as printed.

Assays:
C57B1/6J mice = assay: Treatment of C57Bl/6J mice fed 45% or 10% lipid diet (diet-induced obesity); format: in vivo, mouse; conditions: 1,200 mg PLX5622/kg of food
Excerpt: (§1) Mice and diets. All experiments on mice were realized in accordance with an animal license issued by the Institutional Review Board (IACUC 15-04-006) from MSKCC. All mice were maintained under SPF conditions. C57B1/6J male mice were purchased from Jackson laboratories. Rosa26^LSL-Tomato (Stock No: 007908), Rosa26^LSL-^YFP (Stock No:006148), Rosa26^mTmG (Stock No: 007576) and Lepr^-/-(db/db) (herein referred to as Lepr^-/-; Stock No: 000697) mice were purchased from Jackson laboratories and bred in house. Csf1r^Cre, Csf1r^MeriCreMer, and Csf1r^fl/fl mice were obtained from J W. Pollard (The University of Edinburgh), Cx3cr1^GFP/+ mice were obtained from Drs. Dan Littman (NYU Skirball institute), Flt3^Cre mice were obtained from Thomas Boehm (Max Planck institute) and Tnfrsf11a^Cre mice were obtained from Y. Kobayashi (Matsumoto Dental University). Ccr2^-/- mice were obtained from IF. Charro (UCSF) Csf1r^-/- mice were backcrossed to FVB/NJ for more than 10 generations. Mice were fed ad libitum a rodent irradiated diet containing 45% kcal from lipids (Research Diets Inc., reference D12451i) or 10% kcal from lipids (Research Diets Inc., reference D12450hi) for 8 weeks. In mice supplemented with the CSF-1R inhibitor PLX5622 (Plexxikon), the aforementioned diets were impregnated with 1200 mg of inhibitor per kg of food. In the experiment named 45%>10% the mice were fed 45% lipid diet for 8 weeks then 10% lipid diet for 2 weeks and compared to mice fed 10% lipid diet for 10 weeks. Mice were weighed weekly. Tnfrsf11a^Cre; Csflr^f/f and Csf1r^Cre; Csf1r^f/f mice are osteopetrotic and as such lack teeth. To prevent confounding systemic effects due to nutritional intake problems, the Tnfrsf11a^Cre; Csf1r^f/f Csf1r^Cre; Csf1r^f/f and control littermates were fed a nutritionally fortified water gel. The nutritional gels were replaced every 12 hours.
Glucose and insulin tolerance tests were performed as described; in brief, for the glucose tolerance test, the mice were fasted for 4h before experiment, but had water ad libitum. The weight and glycaemia were measured, and the mice were injected intraperitoneally with 2 g glucose (Thermo Scientific) per kg of body weight. Following the glucose injection, glycemia was measured every 30 min for 2 hours. For the insulin tolerance test, the mice were fasted for 4h before experiment, but had water ad libitum. The weight and the glycaemia were measured, and the mice were injected with 0.25U insulin (Sigma) per kg of body weight. Following the glucose injection, glycemia was measured every 30 min for 2 hours. To measure the glycaemia, the tail of the animals was pricked with a 27G needle and a drop of blood was placed on the glucometer (ACCU-CHECK AVIVA, Roche). […]
(§2) Metabolic analysis of Leptin receptor deficient mice, PLX5622-treated mice, anti-PDGFcc treated mice, and control C57Bl/6J mice. Animals were individually housed in a temperature controlled Promethion Metabolic Screening System (Sable Systems International, NV). Food intake was acquired gravimetrically and ambulatory activity was acquired using a laser matrix. Mice were acclimated to this environment on a 12 hr light/dark cycle for 48 hr before the indicated length of recording (24 hr to 120 hr) period began. Fecal bomb calorimetry was performed on feces collected during the last day of metabolic cage recording period, dehydrated in an oven at 60C for 48 hr, then combusted in technical duplicates with a Parr 6725 Semimicro Calorimeter to determine gross caloric intake.
Infrared imaging of mice. Infrared images were taken on the last day of metabolic analysis using a FLIR T430sc Infrared Camera. These images were into RAW files and then analyzed in AMIDE. A box was drawn over region of interest (ROI); interscapular (70×30), inguinal (35×35) and dorsal. The 10% top warmest pixels were used for interscapular and inguinal quantifications. The 20% top warmest pixels were used for dorsal quantifications. […]

Lepr^-/- (db/db) mice = assay: PLX5622 treatment of leptin-receptor deficient mice that spontaneously develop obesity; format: in vivo, mouse
Excerpt: as §1, §2
Triglyceride Measurement for Mice. To measure triglycerides, ~ 100 mg of mouse liver was homogenized in 100 µl of PBS + 0.05% Tween 20. Triglyceride was then measured using the free glycerol reagent (Sigma; F6428) as described in the manufacturer’s protocol and normalized to the liver weight.
To quantify the size of the adipocytes, the software image J was used. Regions of interest (ROI) were drawn following the cellular membrane of the adipocytes and the surface of the ROI was determined by the software. 50 adipocytes were measured per field of view of the eWAT. Adipocytes were measured on 3 fields of view, taken with N-Achroplan 10x/0.25 objective. Crown-like structures (CLS) were quantified on the same fields of view. Crown like structures were defined as microscopic foci of dying adipocytes surrounded by macrophages as visualized by H&E staining.

[1] = tested on: epididymal fat pad explants; assay: eWAT (epididymal fat pad) explants cultured ex vivo, lipid storage by adipocytes; format: cell-based, mouse; conditions: Tnfrsf11a^Cre; Csf1r^f/f fat pads; 100 ng/ml PDGFcc, 10 ng/ml VEGFb or 10 ng/ml IGF1 on days 0, 3, 6
Procedure: Whole Mount Imaging and Cytology of Sorted Macrophages. For whole mount immunofluorescence imaging, after anesthesia and blood collection by cardiac puncture, the mice were perfused with 10 mL PBS at room temperature. Approximately 3 mm^3 pieces of the tissue were incubated in 4% paraformaldehyde (PFA) (Electron Microscopy) diluted in PBS for 30 min at room temperature with agitation, then rinsed with PBS and stained with directly conjugated antibodies for 30 minutes. Then the samples were rinsed with PBS 3× and mounted on cavity slides (Sigma) with Fluoromount G (eBioscience). Approximately 50 µm thick Z-stack and tile scan were acquired with LSM880 Zeiss microscope with 40x/1.3 (oil). Image analysis was performed using Imaris (Bitplane) software.
In Vitro Epididymal Adipose Tissue Explants. Epididymal fat pads of 4-day-old Tnfrsf11a^Cre+Csf1r^fl/fl mice and littermates were dissected and incubated in RPMI with 10% heat de-activated FBS at 37° C. for 14 days. Fresh medium was added to the explants on day 7. At the termination of the experiment, the explants were fixed in 4% PFA for 30 minutes at room temperature with agitation and then rinsed in PBS and permeabilized for 15 minutes in PBS + 0.03% Triton. Subsequently, the explants were blocked with 2% BSA and stained with directly conjugated antibodies. To remove macrophages from wt epididymal fat pads in vitro, 15 µM of the CSF1R inhibitor PLX5622 was added to explants on day 0 and 7 following the addition of fresh medium. For the in vitro rescue experiments, epididymal fat pads of Tnfrsf11a^Cre; Csf1r^fl/fl mice and littermates as well as […] treated fat pads were supplemented with 100 ng/ml of recombinant mouse PDGFcc (R&D systems), 10 ng/ml of recombinant mouse VEGFb (R&D systems), or 10 ng/ml of recombinant mouse IGF1 (R&D systems) three times on days 0, 3, and 6.

PDGFRA/A homodimers = PDGFRA/A homodimers (Homo sapiens, UniProt P16234); conditions: Gilbertson et al. 2001; cited from earlier work
PDGFRA/A homodimers, sequence (P16234 24-1089, species assumed): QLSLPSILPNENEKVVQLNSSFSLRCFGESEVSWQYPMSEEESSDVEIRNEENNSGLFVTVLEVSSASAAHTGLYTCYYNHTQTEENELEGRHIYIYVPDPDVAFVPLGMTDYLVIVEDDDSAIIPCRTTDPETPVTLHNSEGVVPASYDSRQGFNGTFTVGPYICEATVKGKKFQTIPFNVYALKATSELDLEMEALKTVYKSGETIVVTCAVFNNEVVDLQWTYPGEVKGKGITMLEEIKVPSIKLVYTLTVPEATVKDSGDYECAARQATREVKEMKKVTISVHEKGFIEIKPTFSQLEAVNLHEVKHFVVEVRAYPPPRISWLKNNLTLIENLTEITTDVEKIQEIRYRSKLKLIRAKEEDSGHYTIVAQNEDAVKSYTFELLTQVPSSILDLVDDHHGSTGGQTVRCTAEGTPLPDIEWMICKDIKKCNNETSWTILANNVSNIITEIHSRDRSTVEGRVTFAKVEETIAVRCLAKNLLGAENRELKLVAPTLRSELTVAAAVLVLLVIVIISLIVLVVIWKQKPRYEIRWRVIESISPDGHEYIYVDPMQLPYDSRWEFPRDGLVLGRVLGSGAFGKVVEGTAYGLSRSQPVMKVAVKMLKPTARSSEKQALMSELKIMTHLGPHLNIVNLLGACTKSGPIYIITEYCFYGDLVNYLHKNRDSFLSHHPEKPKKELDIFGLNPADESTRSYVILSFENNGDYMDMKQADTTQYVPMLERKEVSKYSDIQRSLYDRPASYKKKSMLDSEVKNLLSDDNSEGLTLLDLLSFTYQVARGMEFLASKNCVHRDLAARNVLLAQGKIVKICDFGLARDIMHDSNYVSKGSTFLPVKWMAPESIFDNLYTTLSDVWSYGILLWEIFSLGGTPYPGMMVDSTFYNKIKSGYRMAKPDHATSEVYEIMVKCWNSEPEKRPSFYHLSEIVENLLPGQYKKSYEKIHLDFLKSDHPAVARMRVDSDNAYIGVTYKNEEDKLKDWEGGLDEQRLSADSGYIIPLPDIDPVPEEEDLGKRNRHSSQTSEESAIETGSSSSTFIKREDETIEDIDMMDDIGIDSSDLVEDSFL

PDGFRB/B homodimers = PDGFRB/B homodimers (Homo sapiens, UniProt P09619); conditions: Gilbertson et al. 2001; cited from earlier work
PDGFRB/B homodimers, sequence (P09619 33-1106, species assumed): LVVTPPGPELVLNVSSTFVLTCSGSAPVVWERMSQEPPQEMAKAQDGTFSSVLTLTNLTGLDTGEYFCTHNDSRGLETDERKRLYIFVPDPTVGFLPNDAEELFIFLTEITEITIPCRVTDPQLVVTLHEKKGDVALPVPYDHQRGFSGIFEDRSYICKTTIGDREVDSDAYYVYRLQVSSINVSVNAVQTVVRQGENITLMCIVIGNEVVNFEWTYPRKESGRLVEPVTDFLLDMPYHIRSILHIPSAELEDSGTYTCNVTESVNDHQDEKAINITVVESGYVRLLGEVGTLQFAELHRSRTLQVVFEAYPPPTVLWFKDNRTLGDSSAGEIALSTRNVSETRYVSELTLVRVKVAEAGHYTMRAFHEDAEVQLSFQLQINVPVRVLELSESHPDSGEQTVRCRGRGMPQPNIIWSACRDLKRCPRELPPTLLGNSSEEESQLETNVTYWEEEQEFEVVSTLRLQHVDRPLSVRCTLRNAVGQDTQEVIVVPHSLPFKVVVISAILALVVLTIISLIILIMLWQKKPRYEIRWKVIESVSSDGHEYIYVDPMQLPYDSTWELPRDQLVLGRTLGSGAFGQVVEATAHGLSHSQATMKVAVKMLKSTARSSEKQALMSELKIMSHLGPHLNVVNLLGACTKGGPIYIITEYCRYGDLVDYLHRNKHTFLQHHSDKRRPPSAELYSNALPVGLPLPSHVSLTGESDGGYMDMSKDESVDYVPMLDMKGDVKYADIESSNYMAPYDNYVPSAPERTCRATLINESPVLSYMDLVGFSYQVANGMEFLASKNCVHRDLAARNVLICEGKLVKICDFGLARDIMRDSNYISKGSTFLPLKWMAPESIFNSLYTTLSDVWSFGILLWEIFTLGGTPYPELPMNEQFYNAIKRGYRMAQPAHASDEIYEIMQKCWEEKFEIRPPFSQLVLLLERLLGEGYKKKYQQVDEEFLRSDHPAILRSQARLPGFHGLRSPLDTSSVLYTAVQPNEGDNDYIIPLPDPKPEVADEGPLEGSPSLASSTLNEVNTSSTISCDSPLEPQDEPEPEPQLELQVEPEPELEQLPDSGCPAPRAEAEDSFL

[2] = 10% lipid diet + PLX5622 for 8 weeks

COc1ncc(F)cc1CNc1ccc(Cc2c[nH]c3ncc(C)cc23)c(F)n1 [PLX5622]
Dio2 expression in the iBAT (C57B1/6J mice): increased | F4/80+ Tim4- and Tim4+ macrophages (C57B1/6J mice): lacked both F4/80^+ Tim4^- and Tim4^+ macrophages | Ucpl expression in the iBAT (C57B1/6J mice): increased | TNF/IL1 production (C57B1/6J mice; 45% lipid diet): protected against | hepatic steatosis (C57B1/6J mice; 45% lipid diet): protected against | metabolic syndrome (C57B1/6J mice; 45% lipid diet): protected against | Pdgfcc expression in fat pads (C57B1/6J mice; high fat diet): did not increase | adipocyte hypertrophy (C57B1/6J mice; high fat diet): did not develop adipocyte hypertrophy | visceral and subcutaneous white adipose tissue mass (C57B1/6J mice; high fat diet): did not increase | weight gain (C57B1/6J mice; high fat diet): gained less weight than controls | Pdgfc expression in adipose tissue (Lepr^-/- (db/db) mice; 10% lipid diet + PLX5622): decreased | adipocyte size (Lepr^-/- (db/db) mice; 10% lipid diet + PLX5622): decreased | liver inflammation (Lepr^-/- (db/db) mice; 10% lipid diet + PLX5622): decreased | adipose tissue mass (Lepr^-/- (db/db) mice; [2]): decreased | weight gain (Lepr^-/- (db/db) mice; [2]): decreased | Dio2 expression (Lepr^-/- (db/db) mice; iBAT, PLX5622 in diet): increased | Ucpl expression (Lepr^-/- (db/db) mice; iBAT, PLX5622 in diet): increased

IGF1: recombinant mouse IGF1 (R&D systems)
rescue of bodipy staining (lipid storage) [1]: not

B1: PDGFcc: mature PDGF-CC protein, growth factor domain dimer released by removal of the CUB domain; exemplary SEQ ID NO: 2 (protein, listed as Homo sapiens)
chain: VVDLNLLTEEVRLYSCTPRNFSVSIREELKRTDTIFWPGCLLVKRCGGNCACCLHNCNECQCVPSKVTKKYHEVLQLRPKTGVRGLHKSLTDVALEHHEECDCVCRGSTGG
modifications: homodimer
binding to PDGFRA/A homodimers (PDGFRA/A homodimers): high affinity | interaction with PDGFRB/B homodimers (PDGFRB/B homodimers): fails to interact

B2: recombinant PDGFcc: Recombinant mouse PDGFcc, R&D systems Cat# 1447-PC-025/CF, active/cleaved form, SEQ ID NO: 3 (protein, listed as Mus sp.)
chain: B1 chain with D3N, T8K, R12K, S65R, R84K, S108N, T109A
rescue of bodipy staining (lipid storage) [1]: rescues bodipy staining to control levels

B3: VEGFb: recombinant mouse VEGFb (R&D systems) (protein, UniProt P49766 22-207, looked up)
Vascular endothelial growth …: PVSQFDGPSHQKKVVPWIDVYARATCQPREVVVPLSMELMGNVVKQLVPSCVTVQRCGGCCPDDGLECVPTGQHQVRMQILMIQYPSSQLGEMSLEEHSQCECRPKKKESAVKPDRVAIPHHRPQPRSVPGWDSTPGASSPADIIHPTPAPGSSARLAPSAVNALTPGPAAAAADAAASSIAKGGA
rescue of bodipy staining (lipid storage) [1]: can also rescue lipid storage
